Our source for the IC50 values is patent US20130029942A1, “COMPOUNDS AND THERAPEUTICAL USES THEREOF” (Myrexis, Inc., priority 2003, published 2013).

As usually defined, the IC50 is the concentration at which inhibition is half-maximal. Read a high IC50 as a need for much substance.

For this test, the system named is P388 murine leukemia cell line. The experiment in a line: P388 cytotoxicity (ATP-Lite, 72 hours). The test is classed as cell-based. The settings on record: Mus musculus, P388, 72 hours. As for the experimental part:
A P388 murine leukemia cell line was obtained from NCI, Frederick, Md. P388 cells were cultured in RPMI-1640 supplemented with 10% fetal bovine serum, 2 mM Glutamax, 1 mM sodium pyruvate, 0.1 mM non-essential amino acids and 10 mM HEPES. Cells were grown at 37° C. in a humidified 5% CO2 atmosphere. Exponentially growing P388 cells were plated at 5,000 cells/well in a 96-well flat-bottomed microtiter plate (Corning, Costar #3595). […] Cellular viability was determined 72 hours later by measuring intracellular ATP with ATP-Lite assay system. The effect of compounds on cell viability was calculated by comparing the ATP levels of cells exposed to test compound with those of cells exposed to DMSO. […] Data was analyzed by Prism software (GraphPad; San Diego, Calif.) by fitting it to a sigmoidal dose response curve.

Counter-ions that a name gives are not always drawn.

In turn, `COc1ccc(N(C)c2nc(CN)nc3ccccc23)c(F)c1` [Example 218, (2-Aminomethyl-quinazolin-4-yl)-(2-fluoro-4-methoxy-phenyl)-methyl-amine] had an IC50 of 12 nM. The figure for `COc1ccc(N(C)c2nc(CN)nc3ccc(Br)cc23)cc1` [Example 219, (2-Aminomethyl-6-bromo-quinazolin-4-yl)-(4-methoxy-phenyl)-methyl-amine] is 250 nM; for `CC(C)Oc1ccc(N(C)c2nc(CN)nc3ccc(N)cc23)cc1` [Example 220, 2-Aminomethyl-N^4-(4-isopropoxy-phenyl)-N^4-methyl-quinazoline-4,6-diamine] it is 870 nM; for `COc1ccc(N(C)c2nc(C)nc3ccc([N+](=O)[O-])cc23)c(F)c1` [Example 221, (2-Fluoro-4-methoxy-phenyl)-methyl-(2-methyl-6-nitro-quinazolin-4-yl)-amine] it is 58 nM. As for `COc1ccc(N(C)c2nc(C)nc3ccc(N)cc23)c(F)c1` [Example 222, N^4-(2-Fluoro-4-methoxy-phenyl)-2,N^4-dimethyl-quinazoline-4,6-diamine], the figure is 6 nM; as for `COc1ccc(N(C)c2nc(C)nc3ccc(N)cc23)cc1OC` [Example 223, N^4-(3,4-Dimethoxy-phenyl)-2,N^4-dimethyl-quinazoline-4,6-diamine], 64 nM; as for `Cc1nc(N(C)c2ccc(OC(C)C)cc2)c2cc([N+](=O)[O-])ccc2n1` [Example 224, (4-Isopropoxy-phenyl)-methyl-(2-methyl-6-nitro-quinazolin-4-yl)-amine], 170 nM. As for `CNc1ccc(N(C)c2nc(C)nc3ccc(N)cc23)cc1` [Example 225, 2,N^4-Dimethyl-N^4-(4-methylamino-phenyl)-quinazoline-4,6-diamine], the figure is 37 nM; as for `Cc1nc(N(C)c2ccc(OC(C)C)cc2)c2cc(N)ccc2n1` [Example 226, N^4-(4-Isopropoxy-phenyl)-2,N^4-dimethyl-quinazoline-4,6-diamine], 20 nM; as for `COc1ccc(N(C)c2nc(N(C)CCCN)nc3ccccc23)cc1` [Example 227, N^2-(3-Amino-propyl)-N^4-(4-methoxy-phenyl)-N^2,N^4-dimethyl-quinazoline-2,4-diamine], 27 nM.

In turn, `CNCCCNc1nc(N(C)c2ccc(OC)cc2)c2ccccc2n1` [Example 228, N^4-(4-Methoxy-phenyl)-N^4-methyl-N^2-(3-methylamino-propyl)-quinazoline-2,4-diamine] returned an IC50 of 900 nM. The figure for `COc1ccc(N(C)c2nc(CN)nc3cccc(F)c23)cc1` [Example 229, (2-Aminomethyl-5-fluoro-quinazolin-4-yl)-(4-methoxy-phenyl)-methyl-amine] is 5 nM; for `CN(c1ccc(O)cc1)c1nc(CN)nc2ccccc12` [Example 230, 4-[(2-Aminomethyl-quinazolin-4-yl)-methyl-amino]-phenol] it is 1700 nM; for `COc1ccc(N(C)c2nc(C(C)(C)C#N)nc3ccccc23)cc1` [Example 231, 2-{4-[(4-Methoxy-phenyl)-methyl-amino]-quinazolin-2-yl}-2-methyl-propionitrile] it is 37 nM. In turn, `COc1ccc(N(C)c2nc(CNC(=O)CCC(=O)O)nc3ccccc23)cc1` [Example 232, N-{4-[(4-Methoxy-phenyl)-methyl-amino]-quinazolin-2-ylmethyl}-succinamic acid] had an IC50 of 950 nM.

The molecule `CNCc1nc(N(C)c2ccc(OC)cc2)c2ccccc2n1` [Example 233, (4-Methoxy-phenyl)-methyl-(2-methylaminomethyl-quinazolin-4-yl)-amine] yielded a concentration for half-maximal inhibition (IC50) of 1100 nM. As for `COc1ccc(N(C)c2nc(CN)nc3ccccc23)cc1F` [Example 234, (2-Aminomethyl-quinazolin-4-yl)-(3-fluoro-4-methoxy-phenyl)-methyl-amine], the IC50 was 11 nM. The figure for `CCOc1ccc(N(C)c2nc(CN)nc3ccccc23)cc1F` [Example 235, (2-Aminomethyl-quinazolin-4-yl)-(4-ethoxy-3-fluoro-phenyl)-methyl-amine] is 5 nM. The figure for `COc1ccc(N(C)c2nc(C)nc3ccc(NS(=O)(=O)c4ccc(OC)cc4)cc23)cc1` [Example 236, 4-Methoxy-N-{4-[(4-methoxy-phenyl)-methyl-amino]-2-methyl-quinazolin-6-yl}-benzenesulfonamide] is 680 nM. The figure for `CCOc1ccc(N(C)c2nc(CN)nc3ccccc23)c(F)c1` [Example 237, (2-Aminomethyl-quinazolin-4-yl)-(4-ethoxy-2-fluoro-phenyl)-methyl-amine] is 15 nM; for `COc1ccc(N(C)c2nc(CNC(=O)[C@H](C)N)nc3ccccc23)cc1` [Example 238, (S)-2-Amino-N-{4-[(4-methoxy-phenyl)-methyl-amino]-quinazolin-2-ylmethyl}-propionamide] it is 12 nM. The molecule `CCOc1ccc(N(C)c2nc(CN)nc3cccc(F)c23)cc1` [Example 239, (2-Aminomethyl-5-fluoro-quinazolin-4-yl)-(4-ethoxy-phenyl)-methyl-amine] registered an IC50 of 22 nM. As for `COc1ccc(N(C)c2nc(CN)nc3ccccc23)cc1Cl` [Example 240, (2-Aminomethyl-quinazolin-4-yl)-(3-chloro-4-methoxy-phenyl)-methyl-amine], the figure is 6 nM; as for `COc1ccc(N(C)c2nc(CN)nc3ccc(-c4ccc(Cl)cc4)cc23)cc1` [Example 241, [2-Aminomethyl-6-(4-chloro-phenyl)-quinazolin-4-yl]-(4-methoxy-phenyl)-methyl-amine], 1440 nM.

Molecule `COc1ccc(N(C)c2nc(CCl)nc3ccccc23)cc1Cl` [Example 242, (3-Chloro-4-methoxy-phenyl)-(2-chloromethyl-quinazolin-4-yl)-methyl-amine] yielded a half-inhibitory concentration (IC50) of 10 nM. As for `COc1ccc(N(C)c2nc(CN)nc3ccc(-c4ccccc4)cc23)cc1` [Example 243, (2-Aminomethyl-6-phenyl-quinazolin-4-yl)-(4-methoxy-phenyl)-methyl-amine], inhibition was half-maximal at 4200 nM (IC50). Take `COc1ccc(N(C)c2nc(CNC(=O)c3cccnc3)nc3ccccc23)cc1` [Example 244, N-{4-[(4-Methoxy-phenyl)-methyl-amino]-quinazolin-2-ylmethyl}-nicotinamide]: the half-maximal inhibitory concentration (IC50) is 58 nM. As for `COc1ccc(N(C)c2nc(C)nc3ccc(Br)cc23)cc1` [Example 245, (6-Bromo-2-methyl-quinazolin-4-yl)-(4-methoxy-phenyl)-methyl-amine], the figure is 2 nM; as for `CCOc1ccc(N(C)c2nc(C)nc3ccc(Br)cc23)cc1F` [Example 246, (6-Bromo-2-methyl-quinazolin-4-yl)-(4-ethoxy-3-fluoro-phenyl)-methyl-amine], 11 nM. `COc1ccc(N(C)c2nc(-c3nnn[nH]3)nc3ccccc23)cc1` [Example 247, (4-Methoxy-phenyl)-methyl-[2-(1H-tetrazol-5-yl)-quinazolin-4-yl]-amine] had a half-inhibitory concentration (IC50) of 60 nM.

For the molecule `COc1ccc(N(C)c2nc(CNC(=O)[C@@H](C)N)nc3ccccc23)cc1` [Example 248, (R)-2-Amino-N-{4-[(4-methoxy-phenyl)-methyl-amino]-quinazolin-2-ylmethyl}-propionamide], the IC50 is 222 nM.

With `COc1ccc(N(C)c2nc(C)nc3ccc(C#N)cc23)cc1` [Example 249, 4-[(4-Methoxy-phenyl)-methyl-amino]-2-methyl-quinazoline-6-carbonitrile], it took 20 nM to reach half-maximal inhibition (IC50). The figure for `CCOc1ccc(N(C)c2nc(CN)nc3cccc(F)c23)c(F)c1` [Example 250, (2-Aminomethyl-5-fluoro-quinazolin-4-yl)-(4-ethoxy-2-fluoro-phenyl)-methyl-amine] is 22 nM; for `COc1c(Cl)cc(N(C)c2nc(CCl)nc3ccccc23)cc1Cl` [Example 251, (2-Chloromethyl-quinazolin-4-yl)-(3,5-dichloro-4-methoxy-phenyl)-methyl-amine] it is 2080 nM.

On to `COc1ccc(N(C)c2nc(CN3CCCCC3=O)nc3ccccc23)cc1` [Example 252, 1-{4-[(4-Methoxy-phenyl)-methyl-amino]-quinazolin-2-ylmethyl}-piperidin-2-one], for which half-maximal inhibition (IC50) was put at 1000 nM. The figure for `CCOc1ccc(N(C)c2nc(C)nc3ccccc23)cc1F` [Example 253, (4-Ethoxy-3-fluoro-phenyl)-methyl-(2-methyl-quinazolin-4-yl)-amine] is 3 nM; for `COc1c(Cl)cc(N(C)c2nc(CN)nc3ccccc23)cc1Cl` [Example 254, (2-Aminomethyl-quinazolin-4-yl)-(3,5-dichloro-4-methoxy-phenyl)-methyl-amine bis(hydrochloride)] it is 5200 nM; for `COc1ccc(N(C)c2nc(CN3CCCC3=O)nc3ccccc23)cc1` [Example 255, 1-{4-[(4-Methoxy-phenyl)-methyl-amino]-quinazolin-2-ylmethyl}-pyrrolidin-2-one] it is 610 nM. In turn, `COc1ccc(N(C)c2nc(CNCCCO)nc3ccccc23)cc1` [Example 256, 3-({4-[(4-Methoxy-phenyl)-methyl-amino]-quinazolin-2-ylmethyl}-amino)-propan-1-ol] had a 50% inhibitory concentration (IC50) of 1800 nM.

`CCOc1c(Cl)cc(N(C)c2nc(CCl)nc3ccccc23)cc1Cl` [Example 257, (2-Chloromethyl-quinazolin-4-yl)-(3,5-dichloro-4-ethoxy-phenyl)-methyl-amine] came in with an IC50 of 2400 nM. The figure for `CCOc1ccc(N(C)c2nc(CCl)nc3ccccc23)cc1Cl` [Example 258, (3-Chloro-4-ethoxy-phenyl)-(2-chloromethyl-quinazolin-4-yl)-methyl-amine] is 15 nM.
